According to patent publication US8378117B2 (priority 2005, dated 2013):
Read-outs that look alike come from different tables or passages of the source.

Columns and labels:
[1] = target: T1, CB1 receptor (Homo sapiens, UniProt P21554); test: Binding assay for CB1 agonists or inverse agonists (SK-N-MC membranes, [3H]-CP-55,940); conditions: for CB1 receptor binding percent inhibition: test concentration not stated; for IC50: Cannabinoid CB1 Receptor Binding IC50, calculated by linear regression from percent inhibition at various test concentrations; for inhibition at 0.25 µM: read-out: CB1 receptor binding percent inhibition, test concentration 0.25 μM (footnote 8); for inhibition at 0.015 µM: read-out: CB1 receptor binding percent inhibition, test concentration 0.015 μM (footnote 7)
T1 construct: expressed in transfected cells
T1 sequence (P21554 whole entry): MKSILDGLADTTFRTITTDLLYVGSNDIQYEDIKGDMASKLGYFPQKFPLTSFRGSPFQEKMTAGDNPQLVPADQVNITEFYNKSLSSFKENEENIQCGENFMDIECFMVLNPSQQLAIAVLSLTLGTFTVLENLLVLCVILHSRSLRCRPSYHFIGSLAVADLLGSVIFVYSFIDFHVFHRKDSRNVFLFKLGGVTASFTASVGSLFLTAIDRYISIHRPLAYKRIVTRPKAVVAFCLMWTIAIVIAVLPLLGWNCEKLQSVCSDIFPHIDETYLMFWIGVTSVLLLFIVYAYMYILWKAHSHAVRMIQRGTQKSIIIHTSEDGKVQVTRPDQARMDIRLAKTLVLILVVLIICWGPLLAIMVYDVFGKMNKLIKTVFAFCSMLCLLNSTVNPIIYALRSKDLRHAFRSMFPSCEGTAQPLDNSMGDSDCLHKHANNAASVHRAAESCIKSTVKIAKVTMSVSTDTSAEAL
Summary of the method: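 Membranes from SK-N-MC cells stably expressing human CB1 incubated with compound and [3H]-CP-55,940 ([…]) for 90 min at 30° C in Tris-HCl pH 7.5, MgCl2, EDTA, fatty-acid-free BSA. Non-specific binding defined with 10 uM WIN 55,212; filtration, scintillation count; IC50 by linear regression.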

[2] = target: T2, CB2 receptor (Homo sapiens, UniProt P34972); test: Binding assay for CB2 agonists or inverse agonists (SK-N-MC membranes, [3H]-CP-55,940); conditions: for CB2 receptor binding percent inhibition: test concentration not stated; for inhibition at 0.25 µM: read-out: CB2 receptor binding percent inhibition, test concentration 0.25 μM (footnote 8)
T2 construct: expressed in transfected cells
T2 sequence (P34972 whole entry): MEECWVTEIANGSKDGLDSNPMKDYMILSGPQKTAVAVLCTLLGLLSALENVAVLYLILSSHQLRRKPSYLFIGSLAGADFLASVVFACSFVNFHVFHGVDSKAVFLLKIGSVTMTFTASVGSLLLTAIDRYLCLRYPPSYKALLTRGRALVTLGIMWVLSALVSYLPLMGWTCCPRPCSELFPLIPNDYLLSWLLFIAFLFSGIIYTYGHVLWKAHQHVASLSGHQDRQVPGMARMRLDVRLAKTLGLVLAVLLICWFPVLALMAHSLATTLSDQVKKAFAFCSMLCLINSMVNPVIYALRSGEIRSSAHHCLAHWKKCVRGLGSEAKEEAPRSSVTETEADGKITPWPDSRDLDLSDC
Summary of the method: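 Membranes from SK-N-MC cells stably expressing human CB2 were incubated with radioligand and test compounds for 90 min at 30 °C in Tris-HCl buffer, pH 7.5, with MgCl2, EDTA and fatty-acid-free BSA. Filter-bound radioactivity was counted; IC50 was derived by linear regression of percent inhibition.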

[3] = target: T1, CB1 receptor; test: cell-based
From the text: The CB1 and CB2 receptors are G-protein coupled receptors (GPCR), which influence cell function via the Gi-protein. These receptors modulate the activity of intracellular adenylate cyclase, which in turn produces the intracellular signal messenger cyclic-AMP (cAMP).
At baseline, or during non-ligand bound conditions, these receptors are constitutively active and tonically suppress adenylate cyclase activity. The binding of an agonist causes further receptor activation and produces additional suppression of adenylate cyclase activity. The binding of an inverse agonist inhibits the constitutive activity of the receptors and results in an increase in adenylate cyclase activity.
By monitoring intracellular adenylate cyclase activity, the ability of compounds to act as agonists or inverse agonists can be determined.
Test compounds were evaluated in SK-N-MC cells which, using standard transfection procedures, were stably transfected with human cDNA for pcDNA3-CRE β-gal and pcDNA3 CB1 receptor (human) or pcDNA3 CB2 receptor (human). By expressing CRE β-gal, the cells produced β-galactosidase in response to CRE promoter activation by cAMP. Cells expressing CRE β-gal and either the human CB1 or CB2 receptor will produce less β-galactosidase when treated with a CB1/CB2 agonist and will produce more β-galactosidase when treated with a CB1/CB2 inverse agonist.
The cells were grown in 96-well plates under standard cell culture conditions at 37° C. in a 5% CO2 atmosphere and culture media (wherein the media was supplemented with 2 mM L-glutamine, […] sodium pyruvate, 10% FBS (fetal bovine serum) and antibiotics).
The change in forskolin induced β-galactosidase activity was determined by setting a vehicle treated cell's activity value at 100% and expressing the β-galactosidase activity measured in a corresponding compound treated cell as a percent of the vehicle treated cell activity.
The EC50 value for functional activity for compounds tested was calculated by linear regression and was obtained from studies in which varying compound concentrations were used.
Where an EC50 value was not obtained for a test compound, the value shown (in %) represents change in functional activity and was obtained from a study in which one compound concentration was used.

[4] = read-out: CB1 receptor binding percent inhibition
[5] = CB1 Receptor Functional Inverse Agonist EC50, forskolin induced β-galactosidase activity, SK-N-MC cells
[6] = read-out: CB1 receptor binding percent inhibition, test concentration 1 μM (footnote 1)
[7] = forskolin induced β-galactosidase activity, SK-N-MC cells, read-out: CB1 Receptor Functional Inverse Agonist EC50

| Structure (SMILES) | CB2 receptor binding percent inhibition [2] [%] | EC50 [3, 5] [nM] | inhibition at 1 µM [1, 6] [%] | IC50 [1] [nM] | inhibition at 0.25 µM [1] [%] | inhibition at 0.25 µM [2] [%] | other results |
| --- | --- | --- | --- | --- | --- | --- | --- |
| CCOC(=O)[C@@H]1C2CCC(C2)[C@@H]1NC(=O)c1nn(-c2ccc(F)cc2F)c2c1CCCCC2Cc1ccc(F)cc1 (stereo partly drawn) [Cpd 110, (2R,3S)-3-{[1-(2,4-difluoro-phenyl)-8-(4-fluoro-benzyl)-1,4,5,6,7,8-hexahydro-cycloheptapyrazole-3-carbonyl]-amino}-bicyclo[2.2.1]heptane-2-carboxylic acid ethyl ester] | 59 | 100 |  |  |  |  | inhibition at 0.5 µM [1, 4]: 48%; inhibition at 1 µM [1, 4]: 63%; CB1 receptor binding percent inhibition [1]: 56% |
| CCOC(=O)[C@@H]1C2CCC(C2)[C@@H]1NC(=O)c1nn(-c2ccc(F)cc2F)c2c1CCCCC2Cc1cccc(F)c1 (stereo partly drawn) [Cpd 111, (2R,3S)-3-{[1-(2,4-difluoro-phenyl)-8-(3-fluoro-benzyl)-1,4,5,6,7,8-hexahydro-cycloheptapyrazole-3-carbonyl]-amino}-bicyclo[2.2.1]heptane-2-carboxylic acid ethyl ester] | 65 | 90 | 62 |  |  |  | inhibition at 0.5 µM ([1]; read-out: CB1 receptor binding percent inhibition, test concentration 0.5 μM (footnote 10)): 45%; CB1 receptor binding percent inhibition [1]: 54% |
| O=C(NN1CCOCC1)c1nn(-c2ccc(F)cc2F)c2c1CCCCC2Cc1cccc(F)c1 (stereo not shown) [Cpd 116, 1-(2,4-difluoro-phenyl)-8-(3-fluoro-benzyl)-1,4,5,6,7,8-hexahydro-cycloheptapyrazole-3-carboxylic acid morpholin-4-ylamide] | 24 |  | 14 |  |  |  | EC50 ([3]; SK-N-MC cells, forskolin induced β-galactosidase activity, read-out: CB1 Receptor Functional Agonist EC50): 300 nM |
| O=C(NN1CCOCC1)c1nn(-c2ccc(Cl)cc2Cl)c2c1CCCCC2Cc1cccc(Cl)c1 (stereo not shown) [Cpd 117, 8-(3-chloro-benzyl)-1-(2,4-dichloro-phenyl)-1,4,5,6,7,8-hexahydro-cycloheptapyrazole-3-carboxylic acid morpholin-4-ylamide] | 22 |  | 44 |  |  |  | EC50 [3, 7]: 300 nM |
| O=C(c1nn(-c2ccc(F)cc2F)c2c1CCCCC2Cc1cccc(F)c1)N1CCOCC1 (stereo not shown) [Cpd 118, [1-(2,4-difluoro-phenyl)-8-(3-fluoro-benzyl)-1,4,5,6,7,8-hexahydro-cycloheptapyrazol-3-yl]-morpholin-4-yl-methanone] | 31 | 100 |  |  |  |  | inhibition at 1 µM [1, 4]: 4% |
| O=C(N[C@@H]1c2ccccc2C[C@@H]1O)c1nn(C2CCCCC2)c2c1CCCC[C@@H]2Cc1ccc(F)cc1 [Cpd 120, (8R)-1-cyclohexyl-8-(4-fluoro-benzyl)-1,4,5,6,7,8-hexahydro-cycloheptapyrazole-3-carboxylic acid [(1R,2S)-2-hydroxy-indan-1-yl]-amide] | 16 | 100 | 9 |  |  |  |  |
| O=S(=O)(/C=C/c1nn(-c2ccc(F)cc2F)c2c1CCCCC2Cc1ccc(F)cc1)NN1CCCCC1 (stereo not shown) [Cpd 122, (2E)-2-[1-(2,4-difluoro-phenyl)-8-(4-fluoro-benzyl)-1,4,5,6,7,8-hexahydro-cycloheptapyrazol-3-yl]-ethenesulfonic acid piperidin-1-ylamide] | 0 | 60 | 0 |  |  |  |  |
| O=S(=O)(/C=C/c1nn(-c2ccc(F)cc2F)c2c1CCCCC2Cc1cccc(F)c1)NN1CCCCC1 (stereo not shown) [Cpd 123, (2E)-2-[1-(2,4-difluoro-phenyl)-8-(3-fluoro-benzyl)-1,4,5,6,7,8-hexahydro-cycloheptapyrazol-3-yl]-ethenesulfonic acid piperidin-1-ylamide] | 14 | 2900 |  |  |  |  | inhibition at 1 µM [1, 4]: 47% |
| Cn1nc(/C=C/S(=O)(=O)NN2CCCCC2)c2c1C(Cc1cccc(F)c1)CCCC2 (stereo not shown) [Cpd 124, (2E)-2-[8-(3-fluoro-benzyl)-1-methyl-1,4,5,6,7,8-hexahydro-cycloheptapyrazol-3-yl]-ethenesulfonic acid piperidin-1-ylamide] | 47 |  | 14 |  |  |  | EC50 [3, 7]: 3400 nM |
| Cn1nc(/C=C/S(=O)(=O)NN2CCCCC2)c2c1C(Cc1ccc(F)cc1)CCCC2 (stereo not shown) [Cpd 128, (2E)-2-[8-(4-fluoro-benzyl)-1-methyl-1,4,5,6,7,8-hexahydro-cycloheptapyrazol-3-yl]-ethenesulfonic acid piperidin-1-ylamide] | 0 |  | 0 |  |  |  | EC50 [3, 7]: 2700 nM |
| CS(=O)(=O)n1nc(C(=O)NCc2ccccc2)c2c1C(Cc1ccc(F)cc1)CCCC2 (stereo not shown) [Cpd 130, 8-(4-fluoro-benzyl)-1-methanesulfonyl-1,4,5,6,7,8-hexahydro-cycloheptapyrazole-3-carboxylic acid benzylamide] |  |  |  | 60 | 84 | 98 | EC50 ([3]; CB1 Receptor Functional Agonist EC50, SK-N-MC cells, forskolin induced β-galactosidase activity): < 30 nM |
| C[C@@H](NC(=O)c1nn(-c2ccc(Cl)cc2Cl)c2c1CCCC/C2=C\c1ccc(Cl)cc1)c1ccccc1 [Cpd 131, (8E)-8-(4-chloro-benzylidene)-1-(2,4-dichloro-phenyl)-1,4,5,6,7,8-hexahydro-cycloheptapyrazole-3-carboxylic acid [(1R)-1-phenyl-ethyl]-amide] |  | < 30 |  | 6 | 93 | 34 | inhibition at 0.015 µM [1]: 53% |
| C[C@@H](NC(=O)c1nn(-c2ccc(Cl)cc2Cl)c2c1CCCC/C2=C\c1ccc(Cl)cc1)C1CCCCC1 [Cpd 132, (8E)-8-(4-chloro-benzylidene)-1-(2,4-dichloro-phenyl)-1,4,5,6,7,8-hexahydro-cycloheptapyrazole-3-carboxylic acid [(1R)-1-cyclohexyl-ethyl]-amide] |  | 10 |  | 5 | 94 | 42 | inhibition at 0.015 µM [1]: 64% |
| O=C(NN1CCCCC1)c1nn(-c2ccc(Cl)cc2Cl)c2c1CCCC/C2=C\c1ccc(Cl)cc1 [Cpd 133, (8E)-8-(4-chloro-benzylidene)-1-(2,4-dichloro-phenyl)-1,4,5,6,7,8-hexahydro-cycloheptapyrazole-3-carboxylic acid piperidin-1-ylamide] |  | 30 |  | 100 | 66 | 29 |  |
| O=C(NN1CCOCC1)c1nn(-c2ccc(Cl)cc2Cl)c2c1CCCC/C2=C\c1ccc(Cl)cc1 [Cpd 134, (8E)-8-(4-chloro-benzylidene)-1-(2,4-dichloro-phenyl)-1,4,5,6,7,8-hexahydro-cycloheptapyrazole-3-carboxylic acid morpholin-4-ylamide] |  | 10 |  |  | 58 | 28 |  |
| NS(=O)(=O)c1ccc(CNC(=O)c2nn(-c3ccc(Cl)cc3Cl)c3c2CCCC/C3=C\c2ccc(Cl)cc2)cc1 [Cpd 135, (8E)-8-(4-chloro-benzylidene)-1-(2,4-dichloro-phenyl)-1,4,5,6,7,8-hexahydro-cycloheptapyrazole-3-carboxylic acid 4-sulfamoyl-benzylamide] |  | < 30 |  | 50 | 65 | 25 |  |
| O=C(NS(=O)(=O)c1ccccc1)c1nn(-c2ccc(Cl)cc2Cl)c2c1CCCC/C2=C\c1ccc(Cl)cc1 [Cpd 136, (8E)-N-[8-(4-chloro-benzylidene)-1-(2,4-dichloro-phenyl)-1,4,5,6,7,8-hexahydro-cycloheptapyrazole-3-carbonyl]-benzenesulfonamide] |  | 30 |  |  | 39 | 18 |  |
| CC(NC(=O)c1nn(-c2ccc(Cl)cc2Cl)c2c1CCCC/C2=C\c1ccc(Cl)cc1)c1ccc(Cl)cc1 (stereo not shown) [Cpd 137, (8E)-8-(4-chloro-benzylidene)-1-(2,4-dichloro-phenyl)-1,4,5,6,7,8-hexahydro-cycloheptapyrazole-3-carboxylic acid [1-(4-chloro-phenyl)-ethyl]-amide] |  | 30 |  | 10 | 77 | 0 | inhibition at 0.015 µM [1]: 57% |
